Measurements published in patent US7638540B2, “Benzofuran compound and medicinal composition containing the same” (The New Industry Research Organization, priority 2003, dated 2009).

Q: With `COc1cccc2c(NC(=O)/C=C/c3ccccc3)c(C(C)=O)oc12` [Example 182, (E)-N-(2-acetyl-7-methoxybenzofuran-3-yl)-3-phenylacrylamide] as the molecule, how does the melting point read?
A: 160.6 to 161.1 °C

Q: For `C/C=C/C(=O)NC(C)c1cc2cccc(OCCCCl)c2o1` (centres unmarked) [Example 133, (E)-N-{1-[7-(3-chloropropoxy)benzofuran-2-yl]ethyl}-2-butenamide], which melting point is on record?
A: 104.7 to 107.7 °C

Q: For `COc1cccc(NC(=O)/C=C(\C)c2cc3c(Br)ccc(OCCN(C)C)c3o2)c1` [Example 39, (E)-3-[4-bromo-7-(2-dimethylaminoethoxy)benzofuran-2-yl]-N-(3-methoxyphenyl)-2-butenamide], which melting point is on record?
A: 176.4 to 181.5 °C

Q: Which melting point does the source give for `CCOC(=O)c1oc2ccc(Br)cc2c1NC(=O)c1cnoc1C` [Example 67, Ethyl 5-bromo-3-[(5-methylisoxazole-4-carbonyl)amino]benzofurane-2-carboxylate] here?
A: 170 to 172.8 °C

Q: Which melting point does the source give for `COc1ccc(NC(=O)/C=C/C=C(\Cl)c2cc3cccc(OCCCCl)c3o2)cc1OC` [Example 53, (2E,4Z)-5-chloro-5-[7-(3-chloropropoxy)benzofuran-2-yl]penta-2,4-dienoic acid (3,4-dimethoxyphenyl)amide] here?
A: 167.5 to 169 °C

Q: Which melting point does the source give for `COc1cccc2c(NC(=O)c3cnoc3C)c(C(C)=O)oc12` [Example 80, N-(2-acetyl-7-methoxybenzofuran-3-yl)-5-methylisoxazole-4-carboxamide] here?
A: 181 to 181.7 °C

Q: For `CC(=O)c1oc2ccc(/C(C)=C/C(=O)N3CCN(c4ccccc4)CC3)cc2c1NC(=O)/C(C#N)=C(/C)O` [Example 95, N-{2-acetyl-5-[1-methyl-3-oxo-3-(4-phenylpiperazin-1-yl)-(E)-1-propenyl]benzofuran-3-yl}-2-cyano-3-hydroxy-(Z)-2-butenamide], which melting point is on record?
A: 167.6 to 168.7 °C

Q: With `COc1cccc2c(NC(=O)c3cnoc3C)c(C(=O)c3ccc(Cl)cc3)oc12` [Example 82, N-[2-(4-chlorobenzoyl)-7-methoxybenzofuran-3-yl]-5-methylisoxazole-4-carboxamide] as the molecule, how does the melting point read?
A: 237.4 to 239.5 °C

Q: For `COc1ccc(/C=C/C(=O)c2oc3ccc(Br)cc3c2NC(=O)CCCl)cc1` [Example 195, (E)-N-{5-bromo-2-[3-(4-methoxyphenyl)-acryloyl]benzofuran-3-yl}-3-chloropropionamide], which melting point is on record?
A: 170.7 to 172 °C

Q: Which melting point does the source give for `COc1ccc(C(=O)Nc2c(Cl)oc3ccc(Br)cc23)cc1` [Example 200, N-(5-bromo-2-chlorobenzofuran-3-yl)-4-methoxybenzamide] here?
A: 195.5 to 197 °C

Q: For `COc1ccc2oc(-c3nc(N=CN(C)C)sc3C=O)c(-c3ccc(Cl)cc3)c2c1` [Example 221, N′-{4-[3-(4-chlorophenyl)-5-methoxybenzofuran-2-yl]-5-formylthiazol-2-yl}-N,N-dimethylformamidine], which melting point is on record?
A: 203.5 to 205 °C

Q: Which melting point does the source give for `CCOC(=O)c1oc2ccc(/C(C)=C/C(=O)N(CC)CC)cc2c1NC(=O)c1cnoc1C` [Example 91, Ethyl (E)-5-(2-diethylcarbamoyl-1-methylvinyl)-3-[(5-methylisoxazole-4-carbonyl)amino]benzofurane-2-carboxylate] here?
A: 138.9 to 141.2 °C

Q: For `COc1ccc2oc(-c3nc(N=CN(C)C)sc3/C=N/CCO)c(-c3ccc(Cl)cc3)c2c1` [Example 223, N′-{4-[3-(4-chlorophenyl)-5-methoxybenzofuran-2-yl]-5-[(2-hydroxyethylimino)methyl]thiazol-2-yl}-N,N-dimethylformamidine], which melting point is on record?
A: 167.8 to 169.2 °C

Q: With `N#C/C=C/C=C(\Cl)c1cc2cc(Br)ccc2o1` [Example 154, (2E,4Z)-5-(5-bromobenzofuran-2-yl)-5-chloropenta-2,4-dienenitrile] as the molecule, how does the melting point read?
A: 179 to 185 °C

Q: For `CC(=O)c1oc2ccc(/C(C)=C/C(=O)N3CCOCC3)cc2c1NC(=O)/C(C#N)=C(/C)O` [Example 108, N-[2-acetyl-5-(1-methyl-3-morpholino-3-oxo-(E)-1-propenyl)benzofuran-3-yl]-2-cyano-3-hydroxy-(Z)-2-butenamide], which melting point is on record?
A: 206.9 to 208.6 °C

Q: For `CCOC(=O)/C=C/C=C(\Cl)c1cc2cccc(OC)c2o1` [Example 62, Ethyl (2E,4Z)-5-chloro-5-(7-methoxybenzofuran-2-yl)penta-2,4-dienoate], which melting point is on record?
A: 113.9 to 117.6 °C

Q: With `CCOC(=O)C(CSCc1ccccc1)NC(=O)/C=C/C=C(\Cl)c1cc2cccc(OCCCCl)c2o1` (centres unmarked) [Example 63, Ethyl (2E,4Z)-3-benzylsulfanyl-2-{5-chloro-5-[7-(3-chloropropoxy)benzofuran-2-yl]penta-2,4-dienoylamino}propionate] as the molecule, how does the melting point read?
A: 116.5 to 118.3 °C

Q: With `C/C=C/C(=O)Nc1c(Cl)oc2ccc(Br)cc12` [Example 184, (E)-2-butenoic acid (5-bromo-2-chlorobenzofuran-3-yl)amide] as the molecule, how does the melting point read?
A: 200 to 202 °C

Q: For `CN(C)/C=C/C(=O)c1oc2ccc(Br)cc2c1NC(=O)/C=C/c1ccccc1` [Example 176, (E,E)-N-[5-bromo-2-(3-dimethylaminoacryloyl)-benzofuran-3-yl]-3-phenylacrylamide], which melting point is on record?
A: 248 °C

Q: For `Cc1oncc1C(=O)Nc1c(C#N)oc2ccccc12` [Example 86, N-(2-cyanobenzofuran-3-yl)-5-methylisoxazole-4-carboxamide], which melting point is on record?
A: 227.3 to 230.4 °C

Q: With `CCN(CC)C(=O)/C=C(\C)c1ccc2oc(C(=O)c3ccc(C#N)cc3)c(NC(=O)/C(C#N)=C(/C)O)c2c1` [Example 109, N-[2-(4-cyanobenzoyl)-5-((E)-2-diethylcarbamoyl-1-methylvinyl)benzofuran-3-yl]-2-cyano-3-hydroxy-(Z)-2-butenamide] as the molecule, how does the melting point read?
A: 219.5 to 222.8 °C

Q: With `CCCCc1oc2ccccc2c1/C(C)=C/C(=O)NCCc1ccc(OC)c(OC)c1` [Example 157, (E)-3-(2-butylbenzofuran-3-yl)-2-butenoic acid [2-(3,4-dimethoxyphenyl)ethyl]amide] as the molecule, how does the melting point read?
A: 95 to 99 °C

Q: For `C/C(=C\C(=O)N1CCOCC1)c1ccc2oc(C(=O)c3ccc(C#N)cc3)c(NC(=O)c3cnoc3C)c2c1` [Example 81, (E)-N-[2-(4-cyanobenzoyl)-5-(1-methyl-3-morpholino-3-oxo-1-propenyl)benzofuran-3-yl]-5-methylisoxazole-4-carboxamide], which melting point is on record?
A: 229.4 to 232.5 °C

Q: Which melting point does the source give for `CCN(CC)C(=O)/C=C(\C)c1ccc2oc(C(=O)c3ccc(C#N)cc3)c(NC(=O)c3cnoc3C)c2c1` [Example 89, (E)-N-[2-(4-cyanobenzoyl)-5-(2-diethylcarbamoyl-1-methylvinyl)benzofuran-3-yl]-5-methylisoxazole-4-carboxamide] here?
A: 202.6 to 205.5 °C

Q: For `COc1cc(C(=O)Nc2c(C(C)=O)oc3ccc(Br)cc23)cc(OC)c1OC` [Example 210, N-(2-acetyl-5-bromobenzofuran-3-yl)-3,4,5-trimethoxybenzamide], which melting point is on record?
A: 212 to 212.3 °C

Q: For `CCc1c(/C(C)=C/C(=O)NCCc2ccc(OC)c(OC)c2)oc2ccccc12` [Example 167, 3-(3-ethylbenzofuran-2-yl)-2-butenoic acid [2-(3,4-dimethoxyphenyl)ethyl]amide], which melting point is on record?
A: 131 to 135 °C
